For two molecules, IC50 results are on record in PMC9706280 (Journal of Pesticide Science, 2022).

SMILES strings stand for the structures.

For the test, the target named is succinate dehydrogenase (SDH) (Botrytis cinerea, UniProt A0A384J5E4+A0A384J8V8+A0A384JHJ5). As to the kind of experiment: SDH assay kit on B. cinerea mitochondrial suspension, absorbance at […] nm. The test is classed as biochemical. Conditions: read-out: IC50 / μM.
succinate dehydrogenase (SDH), sequence (A0A384J5E4 31-300): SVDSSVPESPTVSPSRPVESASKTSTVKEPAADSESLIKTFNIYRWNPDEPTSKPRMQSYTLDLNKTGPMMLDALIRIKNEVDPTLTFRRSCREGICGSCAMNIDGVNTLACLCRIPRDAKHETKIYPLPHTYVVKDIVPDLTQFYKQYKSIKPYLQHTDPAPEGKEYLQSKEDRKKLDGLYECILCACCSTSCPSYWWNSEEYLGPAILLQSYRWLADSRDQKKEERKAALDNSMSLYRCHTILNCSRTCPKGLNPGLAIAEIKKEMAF
succinate dehydrogenase (SDH), sequence (A0A384J8V8 41-189): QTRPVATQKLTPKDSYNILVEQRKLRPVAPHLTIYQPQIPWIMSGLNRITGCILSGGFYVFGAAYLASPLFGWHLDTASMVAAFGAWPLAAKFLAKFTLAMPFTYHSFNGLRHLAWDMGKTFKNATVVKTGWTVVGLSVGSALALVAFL
succinate dehydrogenase (SDH), sequence (A0A384JHJ5 55-192): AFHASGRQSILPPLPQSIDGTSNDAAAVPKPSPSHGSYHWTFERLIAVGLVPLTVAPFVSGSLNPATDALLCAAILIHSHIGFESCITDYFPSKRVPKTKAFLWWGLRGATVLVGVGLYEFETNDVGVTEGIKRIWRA
succinate dehydrogenase (SDH), sequence (A0A384K456 41-647 partner): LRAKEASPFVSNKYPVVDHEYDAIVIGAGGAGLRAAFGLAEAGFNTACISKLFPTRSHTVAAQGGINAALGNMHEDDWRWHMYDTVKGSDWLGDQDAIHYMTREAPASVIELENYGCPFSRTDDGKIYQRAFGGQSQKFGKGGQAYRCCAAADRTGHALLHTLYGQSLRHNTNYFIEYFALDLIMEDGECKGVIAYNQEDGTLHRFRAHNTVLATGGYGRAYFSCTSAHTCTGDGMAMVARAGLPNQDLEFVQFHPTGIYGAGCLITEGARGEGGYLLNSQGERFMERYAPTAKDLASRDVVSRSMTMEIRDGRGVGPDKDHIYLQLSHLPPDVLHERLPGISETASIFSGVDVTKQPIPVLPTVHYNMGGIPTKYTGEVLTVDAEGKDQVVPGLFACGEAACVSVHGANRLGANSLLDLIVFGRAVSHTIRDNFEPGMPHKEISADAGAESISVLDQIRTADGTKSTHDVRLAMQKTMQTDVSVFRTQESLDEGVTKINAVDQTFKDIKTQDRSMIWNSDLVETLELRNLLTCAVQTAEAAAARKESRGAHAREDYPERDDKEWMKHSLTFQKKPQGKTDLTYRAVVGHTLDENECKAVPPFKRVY

With `Cc1nc(C(F)(F)F)c(C(=O)Nc2c(Br)cc(OC(F)(F)F)cc2Br)s1` [thifluzamide], the IC50 worked out at 14.4 µM.

Regarding `O=C(Nc1ccccc1Nc1ccccc1)c1ccc(Cl)nc1` [3f, 6-chloro-N-(2-(phenylamino)phenyl)nicotinamide], the IC50 stood at 17.3 µM.
